# According to patent US7527967B2, “Recombinant baculovirus and virus-like particle” (priority 2003, dated 2009):
# Tested on: vAtEGp64S966 baculovirus (spike protein) entry into Vero E6 cells
# Assay type: cell-based
row,Compound,blocking the entry of baculovirus into Vero E6 cells
1,"CN1CCN(CCCN2c3ccccc3Sc3ccc(Cl)cc32)CC1 [compound 0643, Prochlorperazine]",very effective in blocking the entry
2,"CCC(=O)c1ccc2c(c1)N(CC(C)N(C)C)c1ccccc1S2 (stereo not drawn) [compound 0649, Propiomazine]",very effective in blocking the entry
3,"CSc1ccc2c(c1)N(CCC1CCCCN1C)c1ccccc1S2 (stereo not drawn) [compound 2025, Thioridazine]",very effective in blocking the entry
